Results as given in patent US9427442B2, “Fluoroalkyl and fluorocycloalkyl 1,4-benzodiazepinone compounds” (BRISTOL-MYERS SQUIBB COMPANY, priority 2012, dated 2016).

Tests used:
human Notch 1 = test: Notch-CBF1 Transactivation Assay (Notch 1); assay type: cell-based; conditions: read-out: Notch 1 (IC50); HeLa cells transfected with truncated Notch 1 and CBF1 luciferase reporter; 18 hours; average of N experiments
Excerpt: (§1) Notch-CBF1 Transactivation Assay
(§2) The Notch-CBF1 (C-promoter binding factor I) cell based transactivation assay is based on the ability of the released Notch intracellular domain fragments (NICDs) to function as transcription factors in conjunction with CBF1 and other nuclear factors. Luciferase assays were used to measure the antagonism of Notch-CBF1 transcriptional activity. HeLa cervical cancer cells are transiently co-transfected with pCDNA3.1/Hygro plasmids containing truncated Notch 1, Notch 2, Notch 3, or Notch 4 receptors and a PGL3 luciferase reporter vector containing 4 copies of CBF1 binding site. The cells were then tested for Notch-CBF1 activity in the absence or presence of test compounds. HeLa cells, maintained in DMEM (high glucose with HEPES), 1× glutamine/penicillin/streptomycin and 10% Fetal Bovine serum, were transiently transfected in a T175 Flask (4.5×10^6 cells/flask) using the Monster Transfection Kit (Minis #MIR2906) according to manufacturers specifications. Table 5 denotes respective DNA quantity for the transfections.
(§3) Assay media (5 μL) containing test compounds in final concentrations ranging from 5 μM to 8.4×10^−5 μM (3 fold serial dilutions) were added to the cells and the cell plates were then incubated for 18 hours at 37° C. and 5% CO2. Control wells contained DMSO vehicle (total counts) or 0.5 μM of an in-house small molecule inhibitor (background counts). Duplicates were used for each sample. Luciferase activity was measured after a 20-minute incubation with 50 μl STEADY-GLO® luciferase reagents according to manufacturer's specifications (Promega, Cat. #E2550) and analyzed by Envision plate reader (PerkinElmer, Boston, Mass.).
(§4) The antagonist effect of compounds was expressed as 100×[1−(average sample−average background)/(average total−average background)] where sample is the luciferase activity in the presence of test compound, background is equal to the luciferase activity in the presence of the small molecule inhibitor control and the total is signal induced in DMSO wells.

human Notch 3 = test: Notch-CBF1 Transactivation Assay (Notch 3); assay type: cell-based; conditions: read-out: Notch 3 (IC50); HeLa cells transfected with truncated Notch 3 and CBF1 luciferase reporter; 18 hours; average of N experiments
Excerpt: as §1, §2, §3, §4

[1] = Human metabolic stability half-life assay; assay type: in vitro ADME; conditions: pH 7.4; human liver microsomes, NADPH, 0.5 μM compound, 45-minute time course; read-out: HLM (t1/2, min)
Excerpt: Metabolic Stability Half-Life Panel

TALL-1 = test: Human Tumor Xenograft Models in Mice (TALL-1); assay type: in vivo
Experimental: Human Tumor Xenograft Models in Mice
Mice were fed food and water ad libitum.
When death occurred, the day of death was recorded.

**Q.** What does the source list for `Cc1cccc2c1NC(=O)[C@@H](NC(=O)[C@H](CCC(F)(F)F)[C@H](CC1CC(F)(F)C1)C(N)=O)N=C2c1ccccc1` [Example 1, (2R,3S)-3-((3,3-Difluorocyclobutyl)methyl)-N-((3S)-9-methyl-2-oxo-5-phenyl-2,3-dihydro-1H-1,4-benzodiazepin-3-yl)-2-(3,3,3-trifluoropropyl)succinamide]?
**A.** IC50 (human Notch 1): 3 nM; IC50 (human Notch 3): 2.4 nM; half-life at 0.5 µM [1]: 60 min; antitumor activity with oral administration (PO) (TALL-1; Human Tumor Xenograft Models in mice, oral): showed antitumor activity; Antitumor Activity in TALL-1 (LCK) BID dosing (TALL-1; Oral Administration, Dose 10, Schedule BIDx10, LCK = Log Cell Kill, NOD-SCID mice): 2.7

**Q.** Which IC50 (human Notch 1) does the source give for `C[C@@H](C[C@H](C(N)=O)[C@@H](CCC(F)(F)F)C(=O)N[C@H]1N=C(c2ccccc2)c2cccc(F)c2NC1=O)C(F)(F)F` [Example 19, (2R,3S)—N-((3S)-9-Fluoro-2-oxo-5-phenyl-2,3-dihydro-1H-1,4-benzodiazepin-3-yl)-3-((2S)-3,3,3-trifluoro-2-methylpropyl)-2-(3,3,3-trifluoropropyl)succinamide] here?
**A.** 2.9 nM

**Q.** What about the IC50 (human Notch 3) of the same molecule?
**A.** 2.4 nM

**Q.** What about the half-life at 0.5 µM [1] of the same molecule?
**A.** 80 min

**Q.** Which IC50 (human Notch 1) does the source give for `NC(=O)[C@@H](CCCF)[C@@H](CCC(F)(F)F)C(=O)N[C@H]1N=C(c2ccccc2)c2cccc(Cl)c2NC1=O` [Example 20, (2R,3S)—N-((3S)-9-Chloro-2-oxo-5-phenyl-2,3-dihydro-1H-1,4-benzodiazepin-3-yl)-3-(3-fluoropropyl)-2-(3,3,3-trifluoropropyl)succinamide] here?
**A.** 10.8 nM

**Q.** And the IC50 (human Notch 3)?
**A.** 16.5 nM

**Q.** What about the half-life at 0.5 µM [1] of the same molecule?
**A.** 107 min

**Q.** Which results are given for `COc1cccc2c1NC(=O)[C@@H](NC(=O)[C@H](CCC(F)(F)F)[C@H](CCC(C)(F)F)C(N)=O)N=C2c1ccccc1` [Example 21]?
**A.** IC50 (human Notch 1): 7.5 nM; IC50 (human Notch 3): 13.8 nM; half-life at 0.5 µM [1]: 76 min

**Q.** Which results are given for `C[C@H](C[C@H](C(N)=O)[C@@H](CCC(F)(F)F)C(=O)N[C@H]1N=C(c2ccccc2)c2cccc(Cl)c2NC1=O)C(F)(F)F` [Example 22, (2R,3S)—N-((3S)-9-Chloro-2-oxo-5-phenyl-2,3-dihydro-1H-1,4-benzodiazepin-3-yl)-3-((2R)-3,3,3-trifluoro-2-methylpropyl)-2-(3,3,3-trifluoropropyl)succinamide]?
**A.** IC50 (human Notch 1): 3.2 nM; IC50 (human Notch 3): 9.3 nM; half-life at 0.5 µM [1]: 117 min

**Q.** For `C[C@@H](C[C@H](C(N)=O)[C@@H](CCC(F)(F)F)C(=O)N[C@H]1N=C(c2ccccc2)c2cccc(Cl)c2NC1=O)C(F)(F)F` [Example 23, (2R,3S)—N-((3S)-9-Chloro-2-oxo-5-phenyl-2,3-dihydro-1H-1,4-benzodiazepin-3-yl)-3-((2S)-3,3,3-trifluoro-2-methylpropyl)-2-(3,3,3-trifluoropropyl)succinamide], which IC50 (human Notch 1) is on record?
**A.** 5.1 nM

**Q.** And the IC50 (human Notch 3)?
**A.** 3.2 nM

**Q.** And the half-life at 0.5 µM [1]?
**A.** 111 min

**Q.** For `CC(F)(F)CC[C@H](C(N)=O)[C@@H](CCC(F)(F)F)C(=O)N[C@H]1N=C(c2ccccc2)c2cccc(Cl)c2NC1=O` [Example 24, (2R,3S)—N-((3S)-9-Chloro-2-oxo-5-phenyl-2,3-dihydro-1H-1,4-benzodiazepin-3-yl)-3-(3,3-difluorobutyl)-2-(3,3,3-trifluoropropyl)succinamide], which IC50 (human Notch 1) is on record?
**A.** 3.9 nM

**Q.** What about the IC50 (human Notch 3) of the same molecule?
**A.** 5.4 nM

**Q.** What about the half-life at 0.5 µM [1] of the same molecule?
**A.** > 120 min

**Q.** For `Cc1cccc2c1NC(=O)[C@@H](NC(=O)[C@H](CCC(F)(F)F)[C@H](CC1(F)CCC1)C(N)=O)N=C2c1ccccc1` [Example 25, (2R,3S)-3-((1-Fluorocyclobutyl)methyl)-N-((3S)-9-methyl-2-oxo-5-phenyl-2,3-dihydro-1H-1,4-benzodiazepin-3-yl)-2-(3,3,3-trifluoropropyl)succinamide], which IC50 (human Notch 1) is on record?
**A.** 3.8 nM

**Q.** What about the IC50 (human Notch 3) of the same molecule?
**A.** 20.1 nM

**Q.** And the half-life at 0.5 µM [1]?
**A.** 33 min
